Measurements as given in paper PMC10888562 (International Journal of Molecular Sciences, 2024).
Several values for one entry are separate records, joined by “and”; a condition that tells them apart may be missing. Equal entries are not always repeated. Where two headings read alike, the source gives them in different places.

Experiments:
[1] = tested on: histone deacetylase (HDAC); assay: Fluorometric HDAC activity assay on extracts of treated HT29 cells; type: cell-based, human; conditions: HT29 colon cells treated 72 h at GI50 concentration, lower RFU = decline in HDAC activity, HT29 extract control 5154 ± 40
Description: All values are expressed as RFU.
To study the HDAC activity in HT29 treated cells, a Fluorometric HDAC Activity Assay Kit ab156064 (Abcam, Cambridge, MA, USA) was used and all sample preparations were made based on the manufacturer’s protocol. A total of 10^6 cells/mL of HT29 cells were seeded in DMEM with serum deprivation for 18 h to synchronise the cells. […] Cells were then washed with cold PBS and resuspended in lysis buffer (10 mM Tris HCl (pH 7.5), 10 mM NaCl, 15 mM MgCl2, 250 mM sucrose, 0.5% NP-40 and 0.1 mM EGTA) and lysed on ice for 20 min. Cells were centrifuged through 4 mL of sucrose cushion (30% sucrose, 10mM Tris HCl (pH 7.5), 10 mM NaCl and 3mM MgCl2) at 1300× g for 10 min at 4 °C. Supernatant was discarded and the pellet was washed and resuspended in extraction buffer (50 mM HEPES-KOH (pH 7.5), 420 mM NaCl, 0.5 mM EDTA 2Na, 0.1 mM EGTA and 10% glycerol) and then sonicated for 30 s. Nuclei were lysed for 30 min on ice and centrifuged at 20,000× g for 30 min. The supernatant was collected, and the samples were prepared for the fluorometric assay according to the manufacturer’s protocol (Histone Deacetylase (HDAC) Activity Assay Fluorometric Kit ab156064, Abcam). The changes in the relative fluorescence intensity (expressed as RFU) were recorded each minute over 60 min using the Glo-Max®-Multimode microplate reader (Promega Corporation, Alexandra, VIC, Australia) at an excitation/emission of 355/460 nm.

HT29 colon cells [2] = assay: DCFDA cellular ROS production assay; type: cell-based, human; conditions: GI50 drug concentration (TBHP 20 μM)
Description: All values are expressed as relative fluorescence units (RFU).
To evaluate the presence of ROS in treated cells, a DCFDA/H2DCFDA-cellular ROS Assay Kit (Abcam, Cambridge, MA, USA) was used, as previously described. A total of 25,000 cells/mL of HT29 cells in DMEM were seeded in 96-well plates. Cells were washed with 1X kit buffer, and then stained with 25 μM 2′,7′-dichlorofluorescein diacetate (DCFH-DA) and incubated for 45 min. DCFH-DA was then removed, and cells were then re-washed with 1X kit buffer, after which phenol red free media was added. Cells were then treated with a GI50 drug concentration for each complex. The plates were directly scanned to measure fluorescence (relative fluorescence units (RFU)) at the time points indicated the Glo-Max®-Multimode microplate reader (Promega Corporation, Alexandra, VIC, Australia) at an excitation/emission of 485/535 nm, which is directly correlated to the DCFH-DA that is deacetylated by cellular esterases and then oxidised by ROS to the fluorescent compound DCF. To generate the positive control (20 μM tert-butyl hydroperoxide (TBHP)), cells were washed with 1X kit buffer, and stained with DCFDA (25 μM) for 45 min; this was removed and TBHP was added in phenol red free media, and the resulting solution was scanned as described above.

HT29 colon cells [3] = assay: TMRE mitochondrial membrane potential (MtMP) assay; type: cell-based, human; conditions: GI50 drug concentration (FCCP 20 μM)
Description: This was achieved by determining if the overproduction of ROS induced by these complexes impacts mitochondrial activity by altering MtMP. Briefly, there is evidence showing a strong correlation between increased levels of ROS and mitochondrial impairment. […] The MtMP changes recorded are measured as RFU. […] To investigate the MtMP changes in HT29 treated cells, a TMRE-MtMP Assay Kit (Abcam, Cambridge, MA, USA) was used, as previously described. In 96-well plates, 25,000 cells/mL of HT29 colon cells in DMEM were seeded. Cells were treated with a GI50 drug concentration for each complex. At 24, 48 or 72 h, cells were washed with PBS and stained with tetramethylrhodamine, ethyl ester (TMRE) (1 μM) and incubated for 30 min. TMRE was then removed, and cells were then re-washed with PBS (0.2% BSA), after which phenol red free media was added. The plates were directly scanned to measure fluorescence (expressed as RFU), using the Glo-Max®-Multimode microplate reader (Promega Corporation, Alexandra, VIC, Australia) at an excitation/emission of 549/575 nm. For the positive control, 20 μM carbonyl cyanide 4-(trifluoromethoxy) phenylhydrazone (FCCP)) was added to the cells and incubated for 10 min. The cells were washed with PBS (0.2% BSA) and stained with TMRE (1 μM) for 30 min; this was removed, and phenol red free media was added, and the final solution was scanned as mentioned above.

BE2-C neuroblastoma = tested on: BE2-C neuroblastoma; parameters: method as in PMID 36142383, PMID 37173934, PMID 36296713; conditions: cited from earlier work
MIA pancreas = tested on: MIA pancreas; parameters: method as in PMID 36142383, PMID 37173934, PMID 36296713; conditions: cited from earlier work
MCF-7 breast = tested on: MCF-7 breast; parameters: method as in PMID 36142383, PMID 37173934, PMID 36296713; conditions: cited from earlier work
HT29 colon cells [4] = tested on: HT29 colon cells; parameters: method as in PMID 36142383, PMID 37173934, PMID 36296713; conditions: cited from earlier work
U87 glioblastoma = tested on: U87 glioblastoma; parameters: method as in PMID 36142383, PMID 37173934, PMID 36296713; conditions: cited from earlier work
[5] = tested on: cisplatin-resistant ADDP ovarian variant; parameters: method as in PMID 36142383, PMID 37173934, PMID 36296713; conditions: cited from earlier work
SJ-G2 glioblastoma = tested on: SJ-G2 glioblastoma; parameters: method as in PMID 36142383, PMID 37173934, PMID 36296713; conditions: cited from earlier work
A2780 ovarian = tested on: A2780 ovarian; parameters: method as in PMID 36142383, PMID 37173934, PMID 36296713; conditions: cited from earlier work
HT29 colon = tested on: HT29 colon; parameters: method as in PMID 36142383, PMID 37173934, PMID 36296713; conditions: cited from earlier work
A431 skin = tested on: A431 skin; parameters: method as in PMID 36142383, PMID 37173934, PMID 36296713; conditions: cited from earlier work
H460 lung = tested on: H460 lung; parameters: method as in PMID 36142383, PMID 37173934, PMID 36296713; conditions: cited from earlier work
[6] = tested on: multiple human cell lines; parameters: method as in PMID 36142383, PMID 37173934, PMID 36296713; conditions: average over all cell lines; cited from earlier work
[7] = tested on: non-tumour-derived MCF10A breast line; parameters: method as in PMID 36142383, PMID 37173934, PMID 36296713; conditions: cited from earlier work
Du145 prostate = tested on: Du145 prostate; parameters: method as in PMID 36142383, PMID 37173934, PMID 36296713; conditions: cited from earlier work

Compound	HDAC Inhibition at 72 h [1]	MtMP Changes (HT29 colon cells [3]; 24 h, control 542 ± 4) [RFU]	MtMP Changes (HT29 colon cells [3]; 48 h, control 507 ± 11) [RFU]	MtMP Changes (HT29 colon cells [3]; 72 h, control 449 ± 10) [RFU]	GI50 (BE2-C neuroblastoma) [nM]	GI50 (MIA pancreas) [nM]	GI50 (MCF-7 breast) [nM]	ROS Production (HT29 colon cells [4]; 24 h) [RFU]	ROS Production (HT29 colon cells [4]; 48 h) [RFU]	ROS Production (HT29 colon cells [4]; 72 h) [RFU]	GI50 (U87 glioblastoma) [nM]	GI50 [5] [nM]	GI50 (SJ-G2 glioblastoma) [nM]	GI50 (A2780 ovarian) [nM]	GI50 (HT29 colon) [nM]	GI50 (A431 skin) [nM]	GI50 (H460 lung) [nM]	GI50 [6] [nM]	GI50 [7] [nM]	GI50 (Du145 prostate) [nM]	also measured
CC(/C=C/C(=O)NO)=C\[C@@H](C)C(=O)c1ccc(N(C)C)cc1 [Trichostatin A (TSA), Trichostatin A]	749 ± 8 RFU	–	–	–	–	–	–	–	–	–	–	–	–	–	–	–	–	–	–	–	HDAC Inhibition at 72 h ([1]; listed as TSA): 749 RFU
CC(C)(C)OO [TBHP, tert-butyl hydroperoxide]	–	–	–	–	–	–	–	–	–	–	–	–	–	–	–	–	–	–	–	–	ROS Production (HT29 colon cells [2]; 24 h, control 60 ± 3): 614 ± 21 RFU; ROS Production (HT29 colon cells [2]; 48 h, control 63 ± 4): 477 ± 23 RFU; ROS Production (HT29 colon cells [2]; 72 h, control 85 ± 6): 311 ± 18 RFU
Cc1c(C)c2cccnc2c2ncccc12.N[C@H]1CCCC[C@@H]1N.[OH][Pt+2][OH] [56MESS(IV)(OH)2]	3011 ± 23 RFU	291 ± 9	221 ± 5	188 ± 5	240 ± 22	43 ± 2.5	480 ± 140	259 ± 3	356 ± 11	438 ± 7	190 ± 23	170 ± 120	210 ± 45	59 ± 7	36 ± 7	120 ± 22	190 ± 150	151 ± 50	61 ± 7	15 ± 2.6	–
Cc1cc2cccnc2c2ncccc12.N[C@H]1CCCC[C@@H]1N.[Pt+2] [5MESS, [Pt^II(5-Mephen)(SS-DACH)]^2+]	2124 RFU and 2124 ± 21 RFU	283 ± 4	261 ± 9	189 ± 11	270 ± 38	48 ± 2	200 ± 12	204 ± 4	205 ± 3	188 ± 3	320 ± 26	34 ± 2	220 ± 10	61 ± 10	33 ± 4	120 ± 25	41 ± 5	117 ± 12	30 ± 2	22 ± 3	–
N#CC(C#N)=NNc1ccc(OC(F)(F)F)cc1 [FCCP, carbonyl cyanide 4-(trifluoromethoxy) phenylhydrazone]	–	234 ± 3	151 ± 7	84 ± 5	–	–	–	–	–	–	–	–	–	–	–	–	–	–	–	–	–
N.N.O=C([O-])C1(C(=O)[O-])CCC1.[Pt+2] [Carboplatin, cis-diammine(1,1-cyclobutanecarboxylato)platinum(II)]	–	–	–	–	19000	> 50000	> 50000	–	–	–	> 50000	> 50000	5700 ± 200	9200 ± 2900	> 50000	24000	14000	32200	> 50000	15000	–
O=C1[O][Pt]2([NH][C@@H]3CCCC[C@H]3[NH]2)[O]C1=O (relative stereo) [Oxaliplatin, trans-L(1R,2R-diaminocyclohexane) oxalatoplatinum(II)]	–	–	–	–	900 ± 200	900 ± 200	500 ± 100	–	–	–	1800 ± 200	800 ± 100	3000 ± 1200	160 ± 100	900 ± 200	4100 ± 500	1600 ± 100	1460 ± 320	–	2900 ± 400	–
N[C@H]1CCCC[C@@H]1N.[OH][Pt+2][OH].c1cnc2c(c1)ccc1cccnc12 [PHENSS(IV)(OH)2]	4107 ± 19 RFU	328 ± 7	314 ± 6	234 ± 11	3000 ± 530	3400 ± 2200	16000	144 ± 5	273 ± 4	303 ± 1	4900 ± 610	1300 ± 350	1700 ± 350	800 ± 84	710 ± 300	4300 ± 530	1700 ± 200	3320 ± 880	1700 ± 200	310 ± 92	–
Cc1cc2cccnc2c2ncccc12.N[C@H]1CCCC[C@@H]1N.[OH][Pt+2][OH] [5MESS(IV)(OH)2]	3119 ± 9 RFU	311 ± 3	291 ± 9	228 ± 7	1400 ± 300	160 ± 29	1200 ± 390	234 ± 1	323 ± 9	335 ± 2	900 ± 58	130 ± 22	640 ± 70	240 ± 9	60 ± 6	360 ± 58	60 ± 5	443 ± 81	130 ± 19	41 ± 5	–
